Measurements reported in PMC8709211, “Improving Membrane Activity and Cargo Delivery Efficacy of a Cell-Penetrating Peptide by Loading with Carboranes” (Pharmaceutics, 2021).

What was measured:
[1] = Circular dichroism spectroscopy (alpha-helical content, R-value); type: physicochemical; conditions: for % of alpha helix, 50% TFE / % of alpha helix, Phosphate Buffer: CD, calculated per ref 31; for % of alpha helix, 50% TFE: 20 µM peptide in 10 mM phosphate buffer (pH 7.0) with 50% TFE (v/v); for R-value, 50% TFE: 20 µM peptide in 10 mM phosphate buffer (pH 7.0) with 50% TFE
Protocol: Conjugates were dissolved in 10 mM phosphate buffer (pH 7.0), either alone or supplemented with 50% TFE (v/v), to a final concentration of 20 µM. CD spectra of all conjugates were recorded from 180–260 nm (0.5 nm intervals) on a J-715 spectropolarimeter (JASCO, Pfungstadt, Germany) in an N2 atmosphere.
To find out more, we performed CD spectroscopy for all peptides solved either in phosphate buffer or in phosphate buffer supplemented with trifluoroethanol (TFE), respectively. All conjugates and sC18 adopted an alpha-helix, when present in phosphate buffer with TFE (Figure S20). On the other hand, when CB-conjugates were solved in phosphate buffer only (Figure 1C), some of them directly formed distinct secondary structures. […] Taking this observation into account, we concluded that the number of CB moieties actually promoted the formation of alpha-helical structures. This effect might be further explained by the helical wheel projection of each conjugate showing that the hydrophobic face of the peptide was clearly enlarged when three or more CB units were attached (see Figure S21). […]

human red blood cells = assay: Hemolysis assay; type: cell-based; conditions: human RBCs 5% (v/v in PBS), 37 °C, up to 25 µM peptide, absorption at 560 nm, normalized to Triton-x-100 control, triplicate, n = 2
Protocol: Human red blood cells were washed five times with PBS (4 °C, 3000× g, 5 min) and diluted to 5% (v/v in PBS). In total, 100 µL of this solution were transferred into a fresh 96-well plate. In total, 50 µL of peptide solution were added and gently resuspended. Red blood cells were incubated for either 1 or 24 h at 37 °C and 5% CO2, respectively. In total, 50 µL of 10% Triton-x-100 were added 10 min prior to the end of the incubation time and served as a positive control. After incubation, cells were centrifuged (r.t., 2500× g, 3 min). The supernatant was carefully transferred into a fresh 96-well plate and the absorption at 560 nm was measured on a Tecan infinite M200 plate reader (Tecan Group AG, Männedorf, Switzerland). The measured absorption referred to the hemoglobin concentration.
Next, we incubated human red blood cells (RBCs) with different concentrations of CB-sC18 conjugates at 37 °C for 1 or 24 h, respectively. Since their cell membranes are mainly composed of neutral lipids, RBCs serve as an excellent biological model for the lytic activity of a peptide. […] For sC18, this agreed with the detected low activity when in contact with zwitterionic LUVs. […] The same activity profile was observed when incubating peptide conjugates with RBCs for only one hour (Figure S30), whereas the effects started at concentrations higher than 5 µM. […]

HeLa cells [2] = assay: Cell viability assay (resazurin); type: cell-based; conditions: 37 °C, serum-free medium, 125 nM–100 µM, relative to untreated cells
Protocol: In total, 17.000 HeLa cells per well were seeded onto 96-well plates (Sarstedt, Nümbrecht, Germany). After confluency of 80–90% was reached, the growth medium was removed, and cells were incubated with 100 µL of peptide solution of different concentrations (125 nM–100 μM in serum-free medium) for 24 h at 37 °C. For a positive control, cells were treated with 70% EtOH for 10 min. Cells were washed with serum-free medium and incubated with 10% (v/v) resazurin (Sigma-Aldrich, Merck group: Darmstadt, Germany) in serum-free medium for 1.5 h at 37 °C. Cell viability was determined by measurement of the resorufin product at 595 nm (λex = 550 nm) on a Tecan infinite M200 plate reader (Tecan Group AG, Männedorf, Switzerland). Viability was calculated from the fluorescence values of treated cells in relation to untreated cells.

HeLa cells [3] = assay: Cellular uptake by flow cytometry; type: cell-based; conditions: 1 µM CF-labeled peptide, serum-free medium, 37 °C; for Cellular uptake into HeLa cells, 30 min: triplicate, n = 3
Protocol: HeLa cells were seeded onto 24-well plates (Sarstedt, Nümbrecht, Germany, 100,000 cells per well, respectively). After reaching 80–90% confluency, medium was removed, and cells were incubated with 1 µM CF-labeled peptide solution in serum-free medium for either 30 min or 2 h at 37 °C. The peptide solution was removed, cells were washed twice with PBS, and trypsinized for 5 min. Detached cells were resuspended in full medium (phenol red free) and afterwards analyzed using a guava easycyte HT flow cytometer (Merck, Darmstadt, Germany).

HeLa cells [4] = assay: Proliferation assay, co-incubation with Daunorubicin; type: cell-based; conditions: 2 h, washout, 72 h growth, resazurin; for Effect on cytotoxicity of Dau (co-incubation): 1 µM peptide with 100 nM or 1 µM Daunorubicin
Protocol: In total, 3000 HeLa cells per well were seeded onto 96-well plates (Sarstedt, Nümbrecht, Germany). When a confluency of 30–40% was reached, medium was removed and cells were incubated with peptides and Daunorubicin at different concentrations (1 µM peptide concentration and 100 nM or 1 µM Daunorubicin in serum-free medium) for 2 h at 37 °C. Afterwards, a washout was performed, and cells were washed once with 100 µL of serum-free medium. Then, 200 µL of medium with serum were added and cells were grown for 72 h at 37 °C. As a positive control, cells were treated with 70% EtOH for 10 min. Afterwards, cells were covered with 10% (v/v) resazurin (Sigma-Aldrich, Merck group: Darmstadt, Germany) in serum-free medium for 1.5 h at 37 °C. The cell viability of treated cells was determined relative to that of untreated cells by measurement of the resorufin product at 595 nm (λex = 550 nm) on a Tecan infinite M200 plate reader (Tecan Group AG, Männedorf, Switzerland). Viability was calculated from the fluorescence values of treated cells in relation to untreated cells.

HeLa cells [5] = assay: Transfection with mCherry plasmid; type: cell-based; conditions: peptide:plasmid 3:1 (250 ng plasmid), 1 µM peptide, 2 h, inspected 72 h after transfection, fluorescence microscopy
Protocol: HeLa cells were seeded into 8-well plates (ibidi, Gräfelfing, Germany, 8000 cells per well, respectively) and grown to 30–40% confluency. Peptides and mCherry plasmid were co-incubated for 1 h at 37 °C at a ratio of 3:1 in serum-free medium (mCherry plasmid: 250 ng). Afterwards, the medium was removed, and the solution was added to the cells. Additional serum-free medium was added to ensure a final peptide concentration of 1 µM. Cells were incubated for 2 h with the peptides and peptide/plasmid solution at 37 °C, respectively. As a positive control, Lipofectamine 2000 (Invitrogen, Thermo Scientific, Waltham, MA, USA) was used and as a negative control, cells were treated with plasmid only. Afterwards, a washout was performed, and cells were washed once with 150 µL of serum-free medium. In total, 300 µL of medium with serum were added and cells were grown for 72 h at 37 °C. Ten minutes prior to microscopic analysis, 0.6 µL of Hoechst33342 were added. Then, cells were washed twice with 150 µL of serum-free medium. In total, 300 µL of serum-supplemented medium were added and cells analyzed using a BZ-X800E microscope (Keyence, Osaka, Japan).

[6] = Critical micelle concentration (CMC) determination by UV-VIS; type: physicochemical; conditions: peptide in water, 1–200 µM; UV absorbance at 255 nm plotted against logarithm of peptide concentration, intersection point of two lines
Protocol: Peptide conjugates were dissolved in water and different concentrations (1–200 µM) were prepared. UV-VIS spectra ranging from 200–700 nm were recorded using a 1 cm path length quartz cuvette in a Spectroquant Pharo 300 photometer (Merck, Darmstadt, Germany). The absorbance at 255 nm was plotted against the logarithm of the peptide concentration. The intersection point of two lines was determined as CMC.
Since this effect was obviously dependent on the hydrophobic nature of the conjugates, we were then interested in whether they would also self-assemble and form nanostructures, such as micelles or fibrils. An easy to apply and fast method makes use of changes in spectroscopic properties associated with micelle formation. For this, one measures the UV absorbance at a specific wavelength as a function of the concentration. Because aggregates like micelles and free molecule species contribute to a different extent to the absorbed UV light, an abrupt change of the slope occurs above a certain point. The corresponding concentration is defined as the critical micelle concentration (CMC). We measured the UV-VIS spectra of all CB-sC18 conjugates and observed for all an additional concentration-dependent maximum at 255 nm (Figure 1A,B and Table 2), whereas this maximum was not detected for meta-carborane-1-carboxylic acid (Figure S14) or sC18 alone (Figure S15).
Thus, we hypothesized this maximum as evidence for a possible self-assembly, and by plotting the absorbance at 255 nm against the logarithm of the peptide concentration, we assigned the intersection point as CMC.

[7] = CF-leakage assay, negatively charged LUVs; conditions: 1 µM peptide, 25 °C, 90 min; fluorescence, normalized to Triton x-100; duplicate, n = 2
Protocol: (§1) Large unilamellar vesicles (LUVs) were prepared by dissolving different lipids in CHCl3, to reach the desired compositions (lipids were purchased from Avanti Polar Lipids, Inc., Alabaster, AL, USA). To remove the solvent, the mixture was placed into a round-bottomed flask on ice and the solvent was evaporated under reduced pressure for 20 min at 40 °C and afterwards under vacuum for another 5 min. The dried lipid film was then hydrated with HKS buffer (25 mM HEPES, 150 mM KCl, pH 7.4, 10% sucrose (w/v)), supplemented with 100 mM 5(6)-carboxyfluorescein (CF), and homogenized for 5 min at 45 °C to form liposomes (final concentration: 8 mM). The resulting multilamellar vesicle dispersion underwent 10 freeze/thawing cycles and was passed 21 times through a mini extruder (0.4 µm polycarbonate treck-etch membrane; Avanti Polar Lipids, Inc., Alabaster, AL, USA). External CF was removed by size exclusion chromatography (PD10 column, GE Healthcare, Chicago, IL, USA). Peptides were added to the LUVs and the CF release was monitored by measuring the increased fluorescence intensity on a plate reader (Biotek, Winooski, VT, USA). […]
(§2) Our results thus far inspired us to investigate how the novel CB-conjugates would perform in a lipid environment. […] Both lipid systems were additionally loaded with CF in order to monitor membrane leakage via fluorescence dye outflow.

[8] = CF-leakage assay, zwitterionic LUVs; conditions: 1 µM peptide, 25 °C, 90 min; fluorescence, normalized to Triton x-100; duplicate, n = 2
Protocol: as §1, §2

[9] = 20 µM peptide in 10 mM phosphate buffer (pH 7.0)
[10] = ratio between the molar ellipticity values at 222 and 208 nm

Row | % of alpha helix, 50% TFE [1] | % of alpha helix, Phosphate Buffer [1, 9] | R-value, 50% TFE [1, 10] | Cellular uptake into HeLa cells, 30 min (HeLa cells [3]) | R-value, Phosphate Buffer ([1]; ratio between the molar ellipticity values at 222 and 208 nm, 20 µM peptide in 10 mM phosphate buffer (pH 7.0)) | CMC [6] | Cellular uptake into HeLa cells, 2 h (HeLa cells [3]; 2 h) | Substance | Hemolytic activity towards RBCs, 24 h (human red blood cells) | Cytotoxicity towards HeLa cells, 24 h (HeLa cells [2]) | Effect on cytotoxicity of Dau (co-incubation) (HeLa cells [4]) | mCherry pDNA transfection (red fluorescent signal) (HeLa cells [5]) | CF release (leakage) from negatively charged LUVs [7] | CF release (leakage) from zwitterionic LUVs [8] | Effect on daunorubicin activity at 100 nM Dau (HeLa cells [4]; 1 µM peptide with 100 nM Dau)
1 | 50.68% | 5.02% | 0.85 | internalized nearly to the same extent |  |  |  | K-GLRKRLRKFRNKIKEK [CB1-sC18, sC18 conjugate bearing one meta-carborane (CB) cluster] | did not exhibit any effect | lowest cytotoxic effect | did not alter the cytotoxicity of Dau | only a weak red signal |  |  | 
2 | 56.30% | 21.68% | 0.98 | highest | 0.73 | 43.45 ± 1.15 µM | internalized the most | KKKK-GLRKRLRKFRNKIKEK [CB4-sC18, sC18 conjugate bearing four meta-carborane clusters] |  |  | did not alter the cytotoxicity of Dau | strong red intracellular signals | highest leakage rate | highest leakage rate towards both tested model systems | slightly increased
